Laboratory results published in patent US20060134097A1, “Process for production of aqueous colloid of graphite silica particles emitting far-infrared rays” (priority 2004, published 2006).

Experiments:
[1] = test system: Tyrosinase derived from mushroom; assay: tyrosinase activity inhibition; format: biochemical; details: control agents
Description: The above aqueous colloid (conc) of the present invention as a basic material, and ascorbic acid and hydroquinone as control agents were used. Tyrosinase used that derived from mushroom (from Sigma Co., Ltd.: 2,500 U/mg). Specifically, for testing an inhibiting effect against tyrosinase activity, 4 kinds of solutions were prepared. (1) a tyrosine solution (0.5 mg/ml); 0.5 ml loading, (2) a 1/15 M phosphate buffer (pH 6.8); 2.0 ml loading, (3) a tyrosine solution (6.0 mg/100 ml); 0.5 ml loading, and (4) a test solution: the nanocolloid particle and/or the aqueous colloid of the present invention, ascorbic acid, or hydroquinone (0.005, 0.01, 0.05, 0.1, 0.5 mg) dissolved in buffer; 2.0 ml loading. The solutions of (1) to (4) were mixed to incubate at 37° C. for one hour, followed by the measurement of absorbance (At) at 475 nm. In addition, the absorbance obtained by adding the phosphate buffer (2 ml) in place of each test solution to carry out the same operation (Ab) was used as control to determine an inhibition rate. The inhibition rate was calculated from the resultant Ab and At values using the formula: inhibition rate=(Ab−At)/Ab×100.

[2] = test system: writhing reaction induced by acetic acid in mice; assay: acetic acid-induced writhing reaction; format: in vivo; details: count over 10 minutes from 10 minutes after 0.7% acetic acid i.p.; s.c. 30 minutes before: aspirin 300 mg/kg, colloid 0.1 ml/10 g
Excerpt: Then, an analgesic effect of the aqueous colloid of the present invention in mice was studied using a writhing reaction induced by acetic acid. In the observation of the behavior of twisting in response e.g. to a pain due to acetic acid irritation in the peritoneal cavity (writhing), when the administration of an agent suppresses the writhing reaction, the agent can be said to have depressed pseudo affective response, assessing it as having an anti-nociceptive effect. 1) ddy strain male mice (7-week old; 27 to 38 g; 6 mice per group); 2) drug solution: aspirin in 0.1 M Tris-Hydrochloride buffer as a solvent (pH 7.8); […] 4) the aqueous colloid of the present invention: 100 ml of the nanocolloid of the present invention to which 0.9 g of sodium chloride was added to make an isotonicsolution. 1) dividing mice into 3 groups to subcutaneously administer, to an aspirin (300 mg/kg) treatment group, the aspirin solution, the Tris-Hydrochloride buffer to a control group, and the aqueous nanocolloid (0.1 ml/10 g) to the remaining group; […] 3) starting to count the frequency of writhing 10 minutes after the administration of the acetic acid and recording a frequency of writhing during a period of 10 minutes. (See FIG. 10)

Structure (SMILES)	tyrosinase activity [1]	frequency of writhing [2]
O=C1O[C@H]([C@@H](O)CO)C(O)=C1O [ascorbic acid]	inhibited the tyrosinase activity	–
CC(=O)Oc1ccccc1C(=O)O [aspirin]	–	10.5±1.2
Oc1ccc(O)cc1 [hydroquinone]	inhibited the tyrosinase activity	–
